Measured values taken from publication PMC5879690 (Proceedings of the National Academy of Sciences of the …, 2018).

Target: indoleamine 2,3-dioxygenase (IDO1) (Homo sapiens, UniProt P14902)
Test: enzyme activity assay, N-formylkynurenine production
Type: biochemical

indoleamine 2,3-dioxygenase (IDO1), sequence (P14902 whole entry): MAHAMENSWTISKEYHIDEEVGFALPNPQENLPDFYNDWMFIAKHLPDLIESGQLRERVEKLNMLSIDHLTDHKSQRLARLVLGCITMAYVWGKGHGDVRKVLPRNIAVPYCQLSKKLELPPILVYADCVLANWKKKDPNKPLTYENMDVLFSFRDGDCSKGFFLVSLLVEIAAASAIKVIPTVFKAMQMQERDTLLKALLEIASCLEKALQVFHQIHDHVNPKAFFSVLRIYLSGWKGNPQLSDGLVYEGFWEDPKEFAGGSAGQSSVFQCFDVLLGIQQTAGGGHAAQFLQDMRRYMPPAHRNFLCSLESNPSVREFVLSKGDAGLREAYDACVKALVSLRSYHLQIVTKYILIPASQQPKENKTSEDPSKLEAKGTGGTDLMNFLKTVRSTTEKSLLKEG

For N[C@H](Cc1c[nH]c2ccccc12)C(=O)O [D-tryptophan], the “enzyme activity assay, N-formylkynurenine production” value was “D-tryptophan was used as the substrate, which unlike L-tryptophan, does not cause substrate inhibition”.
